The record followed here is ChEMBL document CHEMBL4229361, “A novel tetrahydroisoquinoline (THIQ) analogue induces mitochondria-dependent apoptosis” (Eur J Med Chem, 2018).

This experiment has as its system A549. Description: Antiproliferative activity against human A549 cells after 48 hrs by CCK-8 assay. It counts as functional, cell-based. Conditions: A549, 48 h.

Regarding `C(#CC1NCCc2cc(OCc3ccccc3)c(OCc3ccccc3)cc21)c1ccccc1` (configuration not stated), the IC50 was determined as 22.4 µM. As to `COc1cc2c(cc1OC)C(C#Cc1ccccc1)NCC2` (configuration not stated), the midpoint of inhibition, the IC50, lay at 40.1 µM.
